Converted amounts (≈) assume the structure as drawn.
Assays:
[1] = system: Escherichia coli; test: Antimicrobial activity against Escherichia coli isolate 16 harboring bla CTX-M-3a gene by broth microdilution method; format: functional
[2] = system: Escherichia coli; test: microbe, parasite or virus in culture; settings: ATCC 25922
[3] = system: Escherichia coli; test: Antimicrobial activity against Escherichia coli isolate 49 harboring bla CTX-M-3a gene by broth microdilution method; format: functional
[4] = system: Escherichia coli; test: Antimicrobial activity against Escherichia coli isolate 36 harboring bla CTX-M-3a gene by broth microdilution method; format: functional
[5] = system: Escherichia coli; test: Antimicrobial activity against Escherichia coli isolate 100 harboring bla CTX-M-3a gene by broth microdilution method in presence of clavulanic acid
[6] = system: Escherichia coli; test: Antimicrobial activity against Escherichia coli isolate 32 harboring bla CTX-M-3a gene by broth microdilution method; format: functional
[7] = system: Escherichia coli; test: Antimicrobial activity against Escherichia coli isolate 100 harboring bla CTX-M-3a gene by broth microdilution method; format: functional
[8] = system: Escherichia coli; test: Antimicrobial activity against Escherichia coli isolate 32 harboring bla CTX-M-3a gene by broth microdilution method in presence of clavulanic acid
[9] = system: Escherichia coli; test: Antimicrobial activity against Escherichia coli isolate Z1 harboring bla CTX-M-3a gene by broth microdilution method in presence of clavulanic acid
[10] = system: Escherichia coli; test: Antimicrobial activity against Escherichia coli isolate Z1 harboring bla CTX-M-3a gene by broth microdilution method; format: functional
[11] = system: Escherichia coli; test: Antimicrobial activity against Escherichia coli isolate 49 harboring bla CTX-M-3a gene by broth microdilution method in presence of clavulanic acid
[12] = system: Escherichia coli; test: Antimicrobial activity against Escherichia coli ATCC 25922 harboring bla CTX-M-3a gene by broth microdilution method in presence of clavulanic acid; format: functional
[13] = system: Escherichia coli; test: Antimicrobial activity against Escherichia coli isolate 86 harboring bla CTX-M-3a gene by broth microdilution method; format: functional
[14] = system: Escherichia coli; test: Antimicrobial activity against Escherichia coli isolate 16 harboring bla CTX-M-3a gene by broth microdilution method in presence of clavulanic acid
[15] = system: Escherichia coli; test: Antimicrobial activity against Escherichia coli isolate 86 harboring bla CTX-M-3a gene by broth microdilution method in presence of clavulanic acid
[16] = system: Escherichia coli; test: Antimicrobial activity against Escherichia coli isolate 36 harboring bla CTX-M-3a gene by broth microdilution method in presence of clavulanic acid
[17] = system: Escherichia coli; test: Antimicrobial activity against Escherichia coli isolate 100 harboring bla CTX-M-3a gene by broth microdilution method in presence of Tazobactam; format: functional
[18] = system: Escherichia coli; test: Antimicrobial activity against Escherichia coli isolate 36 harboring bla CTX-M-3a gene by broth microdilution method in presence of Tazobactam; format: functional
[19] = system: Escherichia coli; test: Antimicrobial activity against Escherichia coli ATCC 25922 harboring bla CTX-M-3a gene by broth microdilution method in presence of Tazobactam; format: functional
[20] = system: Escherichia coli; test: Antimicrobial activity against Escherichia coli isolate 49 harboring bla CTX-M-3a gene by broth microdilution method in presence of Tazobactam; format: functional
[21] = system: Escherichia coli; test: Antimicrobial activity against Escherichia coli isolate 32 harboring bla CTX-M-3a gene by broth microdilution method in presence of Tazobactam; format: functional
[22] = system: Escherichia coli; test: Antimicrobial activity against Escherichia coli isolate 16 harboring bla CTX-M-3a gene by broth microdilution method in presence of Tazobactam; format: functional
[23] = system: Escherichia coli; test: Antimicrobial activity against Escherichia coli isolate 86 harboring bla CTX-M-3a gene by broth microdilution method in presence of Tazobactam; format: functional

Row | Compound | MIC [1] [µg/mL] | MIC [2] [µg/mL] | MIC [3] [µg/mL] | MIC [4] [µg/mL] | MIC [6] [µg/mL] | MIC [7] [µg/mL] | MIC [10] [µg/mL] | MIC [13] [µg/mL] | other results
1 | CO/N=C(\C(=O)N[C@@H]1C(=O)N2C(C(=O)O)=C(COC(C)=O)CS[C@H]12)c1csc(N)n1 [CEFOTAXIME] | 64 (≈ 141 µM) | 0.06 (≈ 0.132 µM) | 128 (≈ 281 µM) | 512 (≈ 1120 µM) | > 1020 | 128 (≈ 281 µM) | > 1020 | > 1020 | MIC [5]: 0.06 µg/mL; MIC [8]: 0.06 µg/mL; MIC [9]: 0.5 µg/mL; MIC [11]: 0.06 µg/mL; MIC [12]: ≤ 0.03 µg/mL; MIC [14]: 0.125 µg/mL; MIC [15]: 0.125 µg/mL; MIC [16]: 0.06 µg/mL
2 | C[C@@H](O)[C@H]1C(=O)N2C(C(=O)O)=C(S[C@@H]3CN[C@H](C(=O)N(C)C)C3)[C@H](C)[C@H]12 [MEROPENEM] | 0.06 (≈ 0.156 µM) | ≤ 0.03 | 0.06 (≈ 0.156 µM) | 0.125 (≈ 0.326 µM) | 0.06 (≈ 0.156 µM) | 0.25 (≈ 0.652 µM) | 0.125 (≈ 0.326 µM) | 0.06 (≈ 0.156 µM) | –
3 | CC1(C)S[C@@H]2[C@H](NC(=O)[C@H](N)c3ccccc3)C(=O)N2[C@H]1C(=O)O [AMPICILLIN] | > 1020 | 4 (≈ 11.4 µM) | > 1020 | > 1020 | > 1020 | > 1020 | > 1020 | > 1020 | –
4 | CC(C)(O/N=C(\C(=O)N[C@@H]1C(=O)N2C(C(=O)[O-])=C(C[n+]3ccccc3)CS[C@H]12)c1csc(N)n1)C(=O)O [CEFTAZIDIME] | 1 (≈ 1.83 µM) | 0.25 (≈ 0.457 µM) | 0.25 (≈ 0.457 µM) | 4 (≈ 7.32 µM) | 4 (≈ 7.32 µM) | 4 (≈ 7.32 µM) | 16 (≈ 29.3 µM) | 8 (≈ 14.6 µM) | MIC [5]: 0.5 µg/mL; MIC [8]: 0.5 µg/mL; MIC [9]: 1 µg/mL; MIC [11]: 0.06 µg/mL; MIC [12]: 0.125 µg/mL; MIC [14]: 0.125 µg/mL; MIC [15]: 0.5 µg/mL; MIC [16]: 0.25 µg/mL
5 | C[C@@H](O)[C@H]1C(=O)N2C(C(=O)O)=C(SCCNC=N)C[C@H]12 [IMIPENEM ANHYDROUS] | – | – | 0.06 (≈ 0.2 µM) | 0.25 (≈ 0.835 µM) | 0.25 (≈ 0.835 µM) | 0.5 (≈ 1.67 µM) | 1 (≈ 3.34 µM) | – | –
6 | CO/N=C(\C(=O)N[C@@H]1C(=O)N2C(C(=O)O)=C(CSc3nc(=O)c(O)nn3C)CS[C@H]12)c1csc(N)n1 [CEFTRIAXONE] | > 1020 | 0.06 (≈ 0.108 µM) | 128 (≈ 231 µM) | > 1020 | > 1020 | > 1020 | > 1020 | > 1020 | –
7 | GENTAMICIN | 32 | – | 0.125 | 1 | > 128 | > 128 | > 128 | > 128 | –
8 | CCN1CCN(C(=O)N[C@@H](C(=O)N[C@@H]2C(=O)N3[C@@H]2SC(C)(C)[C@@H]3C(=O)O)c2ccccc2)C(=O)C1=O [PIPERACILLIN] | 256 (≈ 495 µM) | 2 (≈ 3.86 µM) | 64 (≈ 124 µM) | > 1020 | > 1020 | > 1020 | > 1020 | > 1020 | MIC [17]: 4 µg/mL; MIC [18]: 4 µg/mL; MIC [19]: 2 µg/mL; MIC [20]: 8 µg/mL; MIC [21]: 16 µg/mL; MIC [22]: 2 µg/mL; MIC [23]: > 128 µg/mL
9 | O=C(O)c1cn(C2CC2)c2cc(N3CCNCC3)c(F)cc2c1=O [CIPROFLOXACIN] | – | ≤ 0.03 | ≤ 0.03 | – | – | – | > 128 | – | –
10 | CC1(C)S[C@@H]2[C@H](NC(=O)[C@H](N)c3ccc(O)cc3)C(=O)N2[C@H]1C(=O)O [AMOXICILLIN] | 4 (≈ 10.9 µM) | 4 (≈ 10.9 µM) | 1 (≈ 2.74 µM) | 8 (≈ 21.9 µM) | 8 (≈ 21.9 µM) | 8 (≈ 21.9 µM) | 32 (≈ 87.6 µM) | 8 (≈ 21.9 µM) | –
11 | CO[C@@]1(NC(=O)Cc2cccs2)C(=O)N2C(C(=O)O)=C(COC(N)=O)CS[C@@H]21 [CEFOXITIN] | 4 (≈ 9.36 µM) | 4 (≈ 9.36 µM) | 2 (≈ 4.68 µM) | 8 (≈ 18.7 µM) | 16 (≈ 37.4 µM) | 8 (≈ 18.7 µM) | 16 (≈ 37.4 µM) | 16 (≈ 37.4 µM) | –
12 | CO/N=C(\C(=O)N[C@@H]1C(=O)N2C(C(=O)[O-])=C(C[N+]3(C)CCCC3)CS[C@H]12)c1csc(N)n1 | 128 (≈ 266 µM) | – | 8 (≈ 16.6 µM) | 256 (≈ 533 µM) | – | 32 (≈ 66.6 µM) | 64 (≈ 133 µM) | 512 (≈ 1070 µM) | –
13 | NCC[C@H](O)C(=O)N[C@@H]1C[C@H](N)[C@@H](O[C@H]2O[C@H](CN)[C@@H](O)[C@H](O)[C@H]2O)[C@H](O)[C@H]1O[C@H]1O[C@H](CO)[C@@H](O)[C@H](N)[C@H]1O [AMIKACIN] | 64 (≈ 109 µM) | 1 (≈ 1.71 µM) | ≤ 0.03 | 2 (≈ 3.42 µM) | 16 (≈ 27.3 µM) | > 128 | > 128 | 4 (≈ 6.83 µM) | –

Reference: ChEMBL document CHEMBL1629672, “blaCTX-M genes in escherichia coli strains from Croatian Hospitals are located in new (blaCTX-M-3a) and widely spread (blaCTX-M-3a and blaCTX-M-15) genetic structures” (2009)
